# Measured values taken from patent publication US7060834B2, “N-type calcium channel antagonists for the treatment of pain” (AstraZeneca AB, priority 2001, dated 2006).
# Legend:
# N-type calcium channel = N-type calcium channel (Homo sapiens, UniProt Q00975); assay: N-Channel FLIPR (Fluorescent Laser Imaging Plate Reader) assay; type: cell-based; settings: inhibition of 80 mM K+ evoked calcium flux, differentiated IMR32 cells
# [1] = test system: formalin-induced nocifensive behaviours; assay: Formalin test; type: in vivo, rats
# Protocol: II. Formalin Test. The Formalin test assesses the inhibitory effects of orally administered N-type calcium channel antagonists on formalin-induced nocifensive behaviours in rats. The formalin test is a well established pain test (Dubuisson and Dennis, 1977; Wheeler-Aceto et al., 1990; Coderre et al., 1993). This test consists of two distinct phases of formalin-induced behavior. The first phase response, occurring between 0 to 5 minutes, is caused by acute nociception to the noxious chemical (formalin) injected into the paw. This is followed by a quiescent period of between 5 to 15 min post injection. A second phase response, occurring after 15 minutes and lasting up to 60 minutes, is caused by sensitization of the central neurons in the dorsal horn. Central sensitization augments the noxious afferent input and a stronger pain barrage is transmitted into the brain. Inhibition of the second phase response is indicative of a central mechanism of drug action. The procedure for the formalin test is as follows: male rats are placed in a Plexiglas chamber and observed for 30-45 min. to observe their baseline activity. Multiple groups of animals are pretreated with either vehicle or different doses of a test compound. Animals are dosed with the drug of interest either 40 min., if by the intraperitoneal route, or 90 min., if by the oral route, prior to injection of formalin into a hind paw (under the dorsal skin; 0.05 mL of sterile 5% formalin). The number of paw flinches and licks during first phase (0-5 min.) and second phase (20-35 min.) are scored and recorded. […] and lick responses are calculated as percentage of inhibition compared with the mean score of a saline control group. Drug potencies are expressed as the dose which causes 50% of the maximum inhibitory effect (“ID50”). Student t-tests are used for statistical analysis to determine the significance of drug effects. Compounds are considered active based on their ability to inhibit the flinch response.
# chemo-nociception = settings: phenylbenzoquinone-induced writhing and formalin test; cited from earlier work
# Chain of N-type calcium channel (Q00975 whole entry): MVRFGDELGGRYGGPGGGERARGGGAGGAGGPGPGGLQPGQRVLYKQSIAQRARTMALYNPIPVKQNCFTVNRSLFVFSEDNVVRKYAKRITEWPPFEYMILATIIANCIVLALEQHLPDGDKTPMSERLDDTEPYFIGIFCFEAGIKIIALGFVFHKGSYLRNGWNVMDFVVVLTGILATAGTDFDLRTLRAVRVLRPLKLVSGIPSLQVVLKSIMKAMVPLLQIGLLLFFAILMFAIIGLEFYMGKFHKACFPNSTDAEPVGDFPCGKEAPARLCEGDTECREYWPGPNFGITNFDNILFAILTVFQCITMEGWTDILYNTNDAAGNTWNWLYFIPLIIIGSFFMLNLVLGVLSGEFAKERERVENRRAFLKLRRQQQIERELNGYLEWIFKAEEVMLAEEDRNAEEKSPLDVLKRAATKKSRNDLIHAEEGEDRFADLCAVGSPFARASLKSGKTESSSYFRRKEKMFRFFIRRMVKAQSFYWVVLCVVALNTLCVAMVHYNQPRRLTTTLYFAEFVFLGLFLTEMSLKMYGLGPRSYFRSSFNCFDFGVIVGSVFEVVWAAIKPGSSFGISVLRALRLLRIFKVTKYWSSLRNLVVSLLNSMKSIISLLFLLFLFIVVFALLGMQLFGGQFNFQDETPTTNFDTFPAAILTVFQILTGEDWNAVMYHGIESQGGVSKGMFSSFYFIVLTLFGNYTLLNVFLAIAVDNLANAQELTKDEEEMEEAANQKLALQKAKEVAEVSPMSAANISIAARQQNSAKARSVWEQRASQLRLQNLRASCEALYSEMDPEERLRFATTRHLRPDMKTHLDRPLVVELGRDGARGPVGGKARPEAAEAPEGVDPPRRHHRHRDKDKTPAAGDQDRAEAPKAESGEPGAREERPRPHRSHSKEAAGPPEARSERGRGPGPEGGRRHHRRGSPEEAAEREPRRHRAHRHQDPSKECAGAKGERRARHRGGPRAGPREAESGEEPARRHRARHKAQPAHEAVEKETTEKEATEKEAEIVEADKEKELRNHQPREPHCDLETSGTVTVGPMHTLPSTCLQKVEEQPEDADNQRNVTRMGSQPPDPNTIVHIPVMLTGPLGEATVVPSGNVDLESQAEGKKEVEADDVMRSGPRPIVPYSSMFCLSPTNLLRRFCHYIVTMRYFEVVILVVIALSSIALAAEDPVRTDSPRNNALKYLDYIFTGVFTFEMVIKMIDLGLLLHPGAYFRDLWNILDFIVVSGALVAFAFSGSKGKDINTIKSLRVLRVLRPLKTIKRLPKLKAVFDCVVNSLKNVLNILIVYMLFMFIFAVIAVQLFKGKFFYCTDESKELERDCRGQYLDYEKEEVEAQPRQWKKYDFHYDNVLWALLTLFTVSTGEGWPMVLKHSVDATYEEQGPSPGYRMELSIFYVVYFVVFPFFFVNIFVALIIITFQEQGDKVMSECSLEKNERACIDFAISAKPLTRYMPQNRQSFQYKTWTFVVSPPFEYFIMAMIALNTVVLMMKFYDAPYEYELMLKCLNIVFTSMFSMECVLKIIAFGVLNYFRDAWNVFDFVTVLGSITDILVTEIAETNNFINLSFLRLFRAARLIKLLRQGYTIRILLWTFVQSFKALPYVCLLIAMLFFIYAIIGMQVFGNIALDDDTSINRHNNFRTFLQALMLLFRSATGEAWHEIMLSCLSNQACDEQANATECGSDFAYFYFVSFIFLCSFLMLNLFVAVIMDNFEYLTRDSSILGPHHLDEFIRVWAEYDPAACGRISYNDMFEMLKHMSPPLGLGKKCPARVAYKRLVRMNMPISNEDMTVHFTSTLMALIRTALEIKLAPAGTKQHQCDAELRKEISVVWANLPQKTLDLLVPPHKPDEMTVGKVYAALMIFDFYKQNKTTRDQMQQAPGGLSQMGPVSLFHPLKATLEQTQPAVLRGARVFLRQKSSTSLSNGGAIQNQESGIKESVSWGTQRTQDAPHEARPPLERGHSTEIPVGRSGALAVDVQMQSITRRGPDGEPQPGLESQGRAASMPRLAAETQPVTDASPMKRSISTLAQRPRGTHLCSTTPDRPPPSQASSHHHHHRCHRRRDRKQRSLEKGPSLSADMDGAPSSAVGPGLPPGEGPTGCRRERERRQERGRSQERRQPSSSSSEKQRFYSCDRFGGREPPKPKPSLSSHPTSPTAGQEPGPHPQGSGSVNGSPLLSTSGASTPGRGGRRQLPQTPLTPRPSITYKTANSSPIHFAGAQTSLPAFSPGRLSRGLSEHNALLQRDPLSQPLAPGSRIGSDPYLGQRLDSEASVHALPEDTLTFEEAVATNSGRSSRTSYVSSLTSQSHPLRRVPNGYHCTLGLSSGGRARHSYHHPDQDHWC
# Chain of N-type calcium channel (P54289 25-1103 partner): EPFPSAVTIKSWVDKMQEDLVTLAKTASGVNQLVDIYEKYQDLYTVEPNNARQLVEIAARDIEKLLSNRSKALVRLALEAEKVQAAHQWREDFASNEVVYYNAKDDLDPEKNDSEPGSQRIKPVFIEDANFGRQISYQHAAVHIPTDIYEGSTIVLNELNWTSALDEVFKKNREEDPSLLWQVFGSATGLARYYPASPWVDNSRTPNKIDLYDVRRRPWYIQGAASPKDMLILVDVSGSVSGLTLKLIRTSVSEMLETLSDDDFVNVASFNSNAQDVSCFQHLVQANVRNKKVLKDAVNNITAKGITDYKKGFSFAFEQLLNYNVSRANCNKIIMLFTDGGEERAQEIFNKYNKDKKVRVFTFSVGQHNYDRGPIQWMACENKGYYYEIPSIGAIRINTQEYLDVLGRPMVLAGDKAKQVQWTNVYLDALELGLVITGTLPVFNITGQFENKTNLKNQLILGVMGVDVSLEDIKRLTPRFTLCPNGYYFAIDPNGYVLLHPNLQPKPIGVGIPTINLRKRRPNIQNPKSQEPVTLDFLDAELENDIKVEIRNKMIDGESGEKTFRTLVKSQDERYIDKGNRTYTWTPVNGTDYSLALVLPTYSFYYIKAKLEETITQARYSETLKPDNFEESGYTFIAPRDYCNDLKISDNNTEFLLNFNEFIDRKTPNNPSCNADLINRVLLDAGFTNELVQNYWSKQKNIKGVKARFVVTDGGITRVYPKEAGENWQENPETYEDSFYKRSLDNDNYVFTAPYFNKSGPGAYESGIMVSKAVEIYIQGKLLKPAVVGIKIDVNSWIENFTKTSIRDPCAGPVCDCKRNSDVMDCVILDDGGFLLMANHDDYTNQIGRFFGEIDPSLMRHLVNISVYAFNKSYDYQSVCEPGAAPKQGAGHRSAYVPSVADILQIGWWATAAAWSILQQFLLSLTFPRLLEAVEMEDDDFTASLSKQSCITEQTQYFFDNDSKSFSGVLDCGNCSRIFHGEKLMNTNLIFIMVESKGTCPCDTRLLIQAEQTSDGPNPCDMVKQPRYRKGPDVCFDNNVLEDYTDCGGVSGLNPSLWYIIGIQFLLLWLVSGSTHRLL
# Chain of N-type calcium channel (P54284 whole entry partner): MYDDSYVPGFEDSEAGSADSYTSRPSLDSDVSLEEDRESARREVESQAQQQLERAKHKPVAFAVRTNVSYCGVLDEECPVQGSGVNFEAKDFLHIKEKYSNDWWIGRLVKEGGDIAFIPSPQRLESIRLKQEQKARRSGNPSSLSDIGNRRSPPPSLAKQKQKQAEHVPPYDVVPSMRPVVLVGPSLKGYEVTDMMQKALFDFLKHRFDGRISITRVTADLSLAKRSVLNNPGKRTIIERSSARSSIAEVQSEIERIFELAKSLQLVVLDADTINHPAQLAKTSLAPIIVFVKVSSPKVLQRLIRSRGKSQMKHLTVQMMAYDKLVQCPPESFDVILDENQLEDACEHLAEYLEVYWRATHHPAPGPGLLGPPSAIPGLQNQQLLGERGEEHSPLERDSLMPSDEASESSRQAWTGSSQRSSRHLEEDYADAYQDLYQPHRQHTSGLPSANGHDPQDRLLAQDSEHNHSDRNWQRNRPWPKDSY
IC50 (N-type calcium channel),Structure (SMILES),also measured
5.87 µM,"CC(C)(C)CNc1cc(Nc2ccc(F)c(Cl)c2)nc2ccccc12 [Example 2, N2(3-chloro-4-fluoro-phenyl)-N4(2,2-dimethyl-propyl)-quinoline-2,4-diamine]","Formalin test % inhibition (dose, time, route) ([1]; (76, 40, IP)): 39 (76, 40, IP) %"
1.72 µM,"COc1ccc(Nc2cc(NCC(C)(C)C)c3ccccc3n2)cc1OC [Example 3, N2(3,4-dimethoxy-phenyl)-N4(2,2-dimethyl-propyl)-quinoline-2,4-diamine]","Formalin test % inhibition (dose, time, route) ([1]; (75, 40, IP)): 22 (75, 40, IP) %"
0.67 µM,"CC(C)(C)CNc1cc(Nc2ccccc2N2CCOCC2)nc2ccccc12 [Example 7, N4(2,2-dimethyl-propyl)-N2(2-morpholin-4-yl-phenyl)-quinoline-2,4-diamine]","Formalin test % inhibition (dose, time, route) ([1]; (59, 40, IP)): 24 (59, 40, IP) %"
2.82 µM,"COc1ccc(Nc2cc(NCC(C)(C)C)c3cccc(F)c3n2)cc1OC [Example 8, N2(3,4-Dimethoxy-phenyl)-N4(2,2-dimethyl-propyl)-8-fluoro-quinoline-2,4-diamine]",–
6.87 µM,"CC(C)(C)CNc1cc(Nc2ccc3ncsc3c2)nc2c(F)cccc12 [Example 11, N2-Benzothiazol-6-yl-N4(2,2-dimethyl-propyl)-8-fluoro-quinoline-2,4-diamine]",–
–,"COc1ccccc1CC(=N)N1C[C@@H]2C(=O)CCC(c3ccccc3)(c3ccccc3)[C@@H]2C1 [RP 67,580]",analgesia (chemo-nociception): produced analgesia with potency comparable to that of morphine
